According to patent EP3118219A1, “NICOTINIC CHANNEL SUBUNITS OF […] AND THEIR USES THEREOF” (priority 2015, dated 2017):

Tests used:
[1] = system: Apis mellifera nicotinic acetylcholine receptor Am-nAChRα5 (nAChRα5 subunit, SEQ ID NO: 5), expressed with unc74+unc50+emc6; experiment: Two-electrode voltage-clamp dose-response on Xenopus laevis oocytes expressing the nAChRα5 subunit (with unc74+unc50+emc6); type: cell-based; settings: current in Xenopus oocytes, dose-response curve; traces at 500 µM (Figure 4)
Experimental: (§1) For example, ric3 (from C.elegans, the nucleic acid sequence being SEQ ID NO: 64 and the amino acid sequence being SEQ ID NO: 65, or honeybee) is clearly necessary to get a reliable expression of the nAChR α7 subunit and a response to ACh, while for the nAChRα5 subunit a cocktail of emc6, unc50 and unc74 chaperone proteins improves expression with response amplitude between 0.1 to several µA for ACh concentration between 1 to 1000µM (Figure 2). In the case of the nAChRα3 subunits, expression can be obtain either alone, or in combination with different cocktails of chaperone or with the vertebrate β2 nAChR subunits. Each of these combinations has a specific affinity for ACh. […]
(§2) Typically, an oocyte, injected 2 to 5 days before with a given mixture of RNA is placed in the recording chamber filled with the desired solution (usually Na100). […] Both electrodes are then impaled into the oocyte and the resting membrane potential is measured (typically -30/- 50 mV). […] Sometime, the effect of a test compound can be determined directly, by applying 50 µl of the compound directly to the bath (with the main perfusion stopped) at the final working concentration (usually 100-1000 µM), after proper dilution from a stock solution (usually 10 mM in water or DMSO or ethanol) into the desired recording solution. […]

[2] = molecular target: T1, Apis mellifera nicotinic acetylcholine receptor Am-nAChRα7 (nAChR α7 subunit, SEQ ID NO: 7), expressed with ric3 (Apis mellifera, UniProt A0ACM8Q2V8); experiment: Two-electrode voltage-clamp dose-response on Xenopus laevis oocytes expressing the nAChRα7 subunit (with ric3); type: cell-based
T1 sequence (A0ACM8Q2V8 21-555): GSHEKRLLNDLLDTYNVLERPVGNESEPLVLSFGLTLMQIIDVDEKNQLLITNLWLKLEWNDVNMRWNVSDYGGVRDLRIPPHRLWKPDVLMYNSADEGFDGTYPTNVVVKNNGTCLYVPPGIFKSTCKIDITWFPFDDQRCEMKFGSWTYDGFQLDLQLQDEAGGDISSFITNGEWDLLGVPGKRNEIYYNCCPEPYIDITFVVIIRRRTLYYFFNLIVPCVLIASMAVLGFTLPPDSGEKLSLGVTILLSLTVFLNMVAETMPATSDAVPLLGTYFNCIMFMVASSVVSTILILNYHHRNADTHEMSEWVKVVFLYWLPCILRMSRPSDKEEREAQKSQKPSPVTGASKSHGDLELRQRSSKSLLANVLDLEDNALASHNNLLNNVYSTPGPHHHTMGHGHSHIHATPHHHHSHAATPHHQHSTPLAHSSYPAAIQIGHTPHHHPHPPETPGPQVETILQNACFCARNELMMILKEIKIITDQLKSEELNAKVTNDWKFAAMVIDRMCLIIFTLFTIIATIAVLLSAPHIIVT
Experimental: as §1, §2

CN/C(=N\[N+](=O)[O-])NCc1cnc(Cl)s1 [clothianidin] was tested. Which sensitivity to clothianidin [1] did it give?
The sensitivity to clothianidin was “completely insensitive”.

What about the EC50 [2] of the same molecule?
Its EC50 is ~10 µM.

What about the “agonist efficacy compared with ACh” value ([2]; dose-response curves of ACh and clothianidin recorded on the same oocyte (Figure 4C)) of the same molecule?
The value was “less effective agonist than ACh”.
